Assay results: publication PMC11243685, “Synthesis and Enzymatic Evaluation of a Small Library of Substituted Phenylsulfonamido-Alkyl Sulfamates towards Carbonic Anhydrase II” (Molecules, 2024)

Experiments:
[1] = target: T1, bovine carbonic anhydrase II (Bos taurus, UniProt P00921); assay: Enzymatic assay of bCA II inhibition, absorbance at 415 nm; type: biochemical; conditions: for inhibition at 1 µM: 1 μM concentration of the inhibitor, triplicate with three technical replicas; for Ki: CA II, from Lineweaver–Burk, Dixon and Cornish Bowden plots, read-out: Inhibition constant Ki;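 on all read-outs here: enzyme is carbonic anhydrase II isolated from bovine erythrocytes, with its activity followed photometrically at 415 nm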
T1 construct: carbonic anhydrase II (bCAII, ≥3000 W-A units/mg from bovine erythrocytes) from Sigma; purchased Sigma (Taufkirchen, Germany); host or cells: isolated from bovine erythrocytes
T1 sequence (P00921 whole entry): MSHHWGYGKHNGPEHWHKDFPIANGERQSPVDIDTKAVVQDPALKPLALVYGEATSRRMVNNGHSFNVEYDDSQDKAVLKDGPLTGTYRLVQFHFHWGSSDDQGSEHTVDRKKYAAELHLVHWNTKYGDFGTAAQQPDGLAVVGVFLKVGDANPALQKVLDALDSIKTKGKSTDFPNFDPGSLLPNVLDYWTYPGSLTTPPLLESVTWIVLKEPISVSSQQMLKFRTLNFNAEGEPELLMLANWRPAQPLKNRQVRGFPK
Experimental: The enzymatic assays have been performed with carbonic anhydrase II (bCAII, ≥3000 W-A units/mg from bovine erythrocytes) from Sigma (Taufkirchen, Germany) using a BMG Labtech Spectrostar Omega apparatus (BMG Labtech, Ortenberg, Germany) measuring λ = 415 nm. Conditions have been described previously [72]. Ki and Ki′ values were determined from Lineweaver–Burk, Dixon and Cornish Bowden plots, respectively.

inhibition at 1 µM ([1]; bCA II) [%] | melting point [°C] | Ki [1] [nM] | mode of inhibition ([1]; bCA II) | SMILES
20.6 ± 0.6 | 92 to 93 | – | – | CC(C)(C)c1ccc(S(=O)(=O)NCCCCCCCCCCOS(N)(=O)=O)cc1 [57b, 10-[(4-(tert-Butyl)phenyl)sulfonamido]decyl Sulfamate]
28.1 ± 0.5 | 69 to 70 | – | – | CC(C)c1ccc(S(=O)(=O)NCCCCCCCCOS(N)(=O)=O)cc1 [39b, 8-[(4-Isopropylphenyl)sulfonamido]octyl Sulfamate]
10 ± 0.6 | 106 to 107 | – | – | CC(C)(C)c1ccc(S(=O)(=O)NCCCCCCCCCOS(N)(=O)=O)cc1 [56b, 9-[(4-(tert-Butyl)phenyl)sulfonamido]nonyl Sulfamate]
38.8 ± 0.1 | 54 to 56 | – | – | Cc1cccc(S(=O)(=O)NCCCCCCCCOS(N)(=O)=O)c1 [25b, 8-[(3-Methylphenyl)sulfonamido]octyl Sulfamate]
35.9 ± 0.4 | 88 to 89 | – | – | CC(C)(C)c1ccc(S(=O)(=O)NCCCCCOS(N)(=O)=O)cc1 [52b, 5-[(4-(tert-Butyl)phenyl)sulfonamido]pentyl Sulfamate]
55.4 ± 0.7 | 82 to 84 | – | – | NS(=O)(=O)OCCCCCCCCCNS(=O)(=O)c1ccccc1 [8b, 9-(Phenylsulfonamido]nonyl Sulfamate]
30.3 ± 0.1 | 70 to 72 | – | – | CC(C)c1ccc(S(=O)(=O)NCCCCCCCOS(N)(=O)=O)cc1 [38b, 7-[(4-Isopropylphenyl)sulfonamido]heptyl Sulfamate]
45.9 ± 0.7 | 102 to 103 | – | – | CC(C)c1ccc(S(=O)(=O)NCCCCCCOS(N)(=O)=O)cc1 [37b, 6-[(4-Isopropylphenyl)sulfonamido]hexyl Sulfamate]
27.1 ± 0.9 | 55 to 57 | – | – | Cc1cccc(S(=O)(=O)NCCCCCCCOS(N)(=O)=O)c1 [24b, 7-[(3-Methylphenyl)sulfonamido]heptyl Sulfamate]
5.9 ± 0.9 | 102 to 103 | – | – | NS(=O)(=O)OCCCCCCCCCCCCNS(=O)(=O)c1ccccc1 [11b, 12-(Phenylsulfonamido]dodecyl Sulfamate]
10.7 ± 0.4 | 89 to 91 | – | – | NS(=O)(=O)OCCCCCCCCCCNS(=O)(=O)c1ccccc1 [9b, 10-(Phenylsulfonamido]decyl Sulfamate]
7.2 ± 0.9 | 95 to 97 | – | – | NS(=O)(=O)OCCCCCCCCCCCNS(=O)(=O)c1ccccc1 [10b, 11-(Phenylsulfonamido]undecyl Sulfamate]
48.4 ± 0.1 | 73 to 74 | – | – | Cc1cccc(S(=O)(=O)NCCCOS(N)(=O)=O)c1 [20b, 3-[(3-Methylphenyl)sulfonamido]propyl Sulfamate]
40.8 ± 0.6 | 95 to 97 | – | – | CC(C)c1ccc(S(=O)(=O)NCCCCCOS(N)(=O)=O)cc1 [36b, 5-[(4-Isopropylphenyl)sulfonamido]pentyl Sulfamate]
63.8 ± 0.8 | 86 to 87 | – | – | Cc1ccc(S(=O)(=O)NCCCOS(N)(=O)=O)cc1 [13b, 3-[(4-Methylphenyl)sulfonamido]propyl Sulfamate]
44.9 ± 0.4 | 100 to 102 | – | – | CC(C)(C)c1ccc(S(=O)(=O)NCCCCOS(N)(=O)=O)cc1 [51b, 4-[(4-(tert-Butyl)phenyl)sulfonamido]butyl Sulfamate]
40.1 ± 0.8 | 87 to 89 | – | – | NS(=O)(=O)OCCCCCCCCCCNS(=O)(=O)c1ccc(C23CC4CC(CC(C4)C2)C3)cc1 [79b, 10-[(4-(Adamantan-1-yl)phenyl)sulfonamido]decyl Sulfamate]
60.3 ± 0.9 | 83 to 84 | – | – | CC(C)c1ccc(S(=O)(=O)NCCCOS(N)(=O)=O)cc1 [34b, 3-[(4-Isopropylphenyl)sulfonamido]propyl Sulfamate]
50 ± 0.8 | 68 to 70 | – | – | Cc1ccccc1S(=O)(=O)NCCCOS(N)(=O)=O [27b, 3-[(2-Methylphenyl)sulfonamido]propyl Sulfamate]
59.5 ± 0.1 | 36 to 38 | – | – | Cc1cccc(S(=O)(=O)NCCOS(N)(=O)=O)c1 [19b, 2-[(3-Methylphenyl)sulfonamido]ethyl Sulfamate]
43.7 ± 0.4 | 95 to 97 | – | – | CC(C)c1ccc(S(=O)(=O)NCCCCOS(N)(=O)=O)cc1 [35b, 4-[(4-Isopropylphenyl)sulfonamido]butyl Sulfamate]
75.6 ± 0.4 | 92 to 93 | 670 ± 50 | competitive inhibitor | CC(C)(C)c1ccc(S(=O)(=O)NCCOS(N)(=O)=O)cc1 [49b, 2-[(4-(tert-Butyl)phenyl)sulfonamido]ethyl Sulfamate]
40.3 ± 0.7 | 49 to 50 | – | – | Cc1ccc(S(=O)(=O)NCCCCCCOS(N)(=O)=O)cc1 [16b, 6-[(4-Methylphenyl)sulfonamido]hexyl Sulfamate]
21.3 ± 1 | 79 to 81 | – | – | CC(C)(C)c1ccc(S(=O)(=O)NCCCCCCCCOS(N)(=O)=O)cc1 [55b, 8-[(4-(tert-Butyl)phenyl)sulfonamido]octyl Sulfamate]
56 ± 0.8 | 59 to 61 | – | – | NS(=O)(=O)OCCCCCCCNS(=O)(=O)c1ccccc1 [6b, 7-(Phenylsulfonamido]heptyl Sulfamate]
56 ± 0.5 | 64 to 66 | – | – | NS(=O)(=O)OCCCCCCNS(=O)(=O)c1ccccc1 [5b, 6-(Phenylsulfonamido]hexyl Sulfamate]
39.9 ± 0.4 | 64 to 66 | – | – | NS(=O)(=O)OCCCNS(=O)(=O)c1ccccc1 [2b, 3-(Phenylsulfonamido]propyl Sulfamate]
75.8 ± 0.6 | 79 to 81 | 760 ± 30 | – | Cc1ccc(S(=O)(=O)NCCOS(N)(=O)=O)cc1 [12b, 2-[(4-Methylphenyl)sulfonamido]ethyl Sulfamate]
49.1 ± 0.2 | 67 to 68 | – | – | Cc1cccc(S(=O)(=O)NCCCCCOS(N)(=O)=O)c1 [22b, 5-[(3-Methylphenyl)sulfonamido]pentyl Sulfamate]
29.1 ± 0.9 | 89 to 90 | – | – | CC(C)(C)c1ccc(S(=O)(=O)NCCCCCCOS(N)(=O)=O)cc1 [53b, 6-[(4-(tert-Butyl)phenyl)sulfonamido]hexyl Sulfamate]
